Experimental data reported in ChEMBL document CHEMBL1129835, “Selective cytotoxicity of certain 9-substituted ellipticines for leukemia cells in a variety of leukemia cell cultures” (1997).

Assays:
Assay type in all cases: functional
CCRF-CEM [1] = assay: Concentration for 50% cell kill against leukemia CCRF-CEM cell line was determined; conditions: Homo sapiens, read-out: LC50 (the source's name)
RXF 393 [2] = assay: Cytotoxicity exhibited by the compound for total growth inhibition of renal cancer RXF 393 cell line; conditions: Homo sapiens
KM12 [3] = assay: Cytotoxicity exhibited by the compound for total growth inhibition of colon cancer KM-12 cell line; conditions: Homo sapiens
MDA-N [4] = assay: Concentration for 50% cell kill against breast cancer MDA-N cell line was determined; conditions: Homo sapiens, read-out: LC50 (the source's name)
CAKI-1 [5] = assay: Effective dose to show cytotoxicity against renal cancerCAKI-1 cell line was determined; conditions: Homo sapiens, read-out: ED50 (the source's name)
KM12 [6] = assay: Concentration for 50% cell kill against colon cancer KM-12 cell line was determined; conditions: Homo sapiens, read-out: LC50 (the source's name)
PC-3 [7] = assay: Concentration for 50% cell kill against prostate cancerPC-3 cell line was determined; conditions: Homo sapiens, read-out: LC50 (the source's name)
KM12 [8] = assay: Effective dose to show cytotoxicity against colon cancer KM-12 cell line was determined; conditions: Homo sapiens, read-out: ED50 (the source's name)
PC-3 [9] = assay: Effective dose to show cytotoxicity against prostate cancer PC-3 cell line was determined; conditions: Homo sapiens, read-out: ED50 (the source's name)
MOLT-4 [10] = assay: The compound was evaluated for cytotoxicity against MOLT-4 leukemia cell line; conditions: Homo sapiens
HL-60 [11] = assay: Effective dose to show cytotoxicity against leukemia HL-60 (TB) cell line was determined; conditions: Homo sapiens, read-out: ED50 (the source's name)
K562 = assay: Effective dose to show cytotoxicity against leukemia K-562 cell line was determined; conditions: Homo sapiens, read-out: ED50 (the source's name)
RXF 393 [12] = assay: Concentration for 50% cell kill against renal cancer RXF 393 cell line was determined; conditions: Homo sapiens, read-out: LC50 (the source's name)
NCI-H322M [13] = assay: The compound was evaluated for cytotoxicity against NCI-H322M non-small cell lung cancer cell line; conditions: Homo sapiens
NCI-H23 [14] = assay: Cytotoxicity exhibited by the compound for total growth inhibition of non-small cell lung cancer NCI-H23 cell line; conditions: Homo sapiens
NCI-H322M [15] = assay: Effective dose to show cytotoxicity against non-small cell lung cancer NCI-H322M cell line was determined; conditions: Homo sapiens, read-out: ED50 (the source's name)
M14 [16] = assay: Effective dose to show cytotoxicity against melanoma M14 cell line was determined; conditions: Homo sapiens, read-out: ED50 (the source's name)
DU-145 [17] = assay: Effective dose to show cytotoxicity against prostate cancer DU-145 cell line was determined; conditions: Homo sapiens, read-out: ED50 (the source's name)
HCT-116 [18] = assay: The compound was evaluated for cytotoxicity against HCT116 colon cancer cell line; conditions: Homo sapiens
LOX IMVI [19] = assay: Concentration for 50% cell kill against melanoma LOX IMVI cell line was determined; conditions: Homo sapiens, read-out: LC50 (the source's name)
M14 [20] = assay: Cytotoxicity exhibited by the compound for total growth inhibition of melanoma M14 cell line; conditions: Homo sapiens
CCRF-CEM [21] = assay: Cytotoxicity exhibited by the compound for total growth inhibition of leukemia CCRF-CEM cell line; conditions: Homo sapiens
SR [22] = assay: Effective dose to show cytotoxicity against leukemia SR cell line was determined; conditions: Homo sapiens, read-out: ED50 (the source's name)
LOX IMVI [23] = assay: Cytotoxicity exhibited by the compound for total growth inhibition of melanoma LOX IMVI cell line; conditions: Homo sapiens
SR [24] = assay: Cytotoxicity exhibited by the compound for total growth inhibition of leukemia SR cell line; conditions: Homo sapiens
SNB-75 = assay: Effective dose to show cytotoxicity against CNS cancer SNB-75 cell line was determined; conditions: Homo sapiens, read-out: ED50 (the source's name)
HL-60 [25] = assay: Cytotoxicity exhibited by the compound for total growth inhibition of leukemia HL-60 (TB) cell line; conditions: Homo sapiens
OVCAR-8 = assay: Concentration for 50% cell kill against ovarian cancerOVCAR-8 cell line was determined; conditions: Homo sapiens, read-out: LC50 (the source's name)
HCT-116 [26] = assay: Effective dose to show cytotoxicity against colon cancer HCT116 cell line was determined; conditions: Homo sapiens, read-out: ED50 (the source's name)
CAKI-1 [27] = assay: Concentration for 50% cell kill against renal cancerCAKI-1 cell line was determined; conditions: Homo sapiens, read-out: LC50 (the source's name)
IGROV-1 [28] = assay: The compound was evaluated for cytotoxicity against IGROV1 ovarian cancer cell line; conditions: Homo sapiens
M14 [29] = assay: Concentration for 50% cell kill against melanoma M14 cell line was determined; conditions: Homo sapiens, read-out: LC50 (the source's name)
MOLT-4 [30] = assay: Effective dose to show cytotoxicity against leukemia MOLT-4 cell line was determined; conditions: Homo sapiens, read-out: ED50 (the source's name)
U-251 [31] = assay: The compound was evaluated for cytotoxicity against U251 CNS cancer cell line; conditions: Homo sapiens
COLO 205 = assay: Cytotoxicity exhibited by the compound for total growth inhibition of colon cancer COLO 205 cell line; conditions: Homo sapiens
U-251 [32] = assay: Cytotoxicity exhibited by the compound for total growth inhibition of CNS cancer U251 cell line; conditions: Homo sapiens
IGROV-1 [33] = assay: Concentration for 50% cell kill against ovarian cancer IGROV 1 cell line was determined; conditions: Homo sapiens, read-out: LC50 (the source's name)
NCI-H23 [34] = assay: Effective dose to show cytotoxicity against non-small cell lung cancer NCI-H23 cell line was determined; conditions: Homo sapiens, read-out: ED50 (the source's name)
U-251 [35] = assay: Effective dose to show cytotoxicity against CNS cancer U251 cell line was determined; conditions: Homo sapiens, read-out: ED50 (the source's name)
CAKI-1 [36] = assay: The compound was evaluated for cytotoxicity against CAKI-1 renal cancer cell line; conditions: Homo sapiens
LOX IMVI [37] = assay: The compound was evaluated for cytotoxicity against LOX-IMVI melanoma cell line; conditions: Homo sapiens
NCI-H522 = assay: Cytotoxicity exhibited by the compound for total growth inhibition of non-small cell lung cancer NCI-H522 cell line; conditions: Homo sapiens
MDA-N [38] = assay: The compound was evaluated for cytotoxicity against MDA-N breast cancer cell line; conditions: Homo sapiens
DU-145 [39] = assay: Cytotoxicity exhibited by the compound for total growth inhibition of prostate cancer DU-145 cell line; conditions: Homo sapiens
RXF 393 [40] = assay: Effective dose to show cytotoxicity against renal cancer RXF 393 cell line was determined; conditions: Homo sapiens, read-out: ED50 (the source's name)
OVCAR-3 = assay: Cytotoxicity exhibited by the compound for total growth inhibition of ovarian cancer OVCAR-3 cell line; conditions: Homo sapiens
Malme-3M = assay: Concentration for 50% cell kill against melanoma MALME-3M cell line was determined; conditions: Homo sapiens, read-out: LC50 (the source's name)

Cc1c2ccncc2c(C)c2c1[nH]c1ccc(CO)cc12
CC50 (CCRF-CEM [1]): > 100000 nM | TGI (RXF 393 [2]): 3890 nM | TGI (KM12 [3]): 1520 nM | CC50 (MDA-N [4]): 4330 nM | EC50 (CAKI-1 [5]): 370 nM | CC50 (KM12 [6]): 7380 nM | CC50 (PC-3 [7]): 23300 nM | EC50 (KM12 [8]): 160 nM | EC50 (PC-3 [9]): 450 nM | GI50 (MOLT-4 [10]): 10 nM | EC50 (HL-60 [11]): 20 nM | EC50 (K562): 30 nM | CC50 (RXF 393 [12]): 9430 nM | GI50 (NCI-H322M [13]): 620 nM | TGI (NCI-H23 [14]): 9440 nM | EC50 (NCI-H322M [15]): 620 nM | EC50 (M14 [16]): 600 nM | EC50 (DU-145 [17]): 1290 nM | GI50 (HCT-116 [18]): 50 nM | CC50 (LOX IMVI [19]): > 100000 nM | TGI (M14 [20]): 3650 nM | TGI (CCRF-CEM [21]): 1010 nM | EC50 (SR [22]): 40 nM | TGI (LOX IMVI [23]): 3030 nM | TGI (SR [24]): 490 nM | EC50 (SNB-75): 490 nM | TGI (HL-60 [25]): 110 nM | CC50 (OVCAR-8): 55200 nM | EC50 (HCT-116 [26]): 50 nM | CC50 (CAKI-1 [27]): 52600 nM | GI50 (IGROV-1 [28]): 180 nM | CC50 (M14 [29]): 34100 nM | EC50 (MOLT-4 [30]): 10 nM | GI50 (U-251 [31]): 280 nM | TGI (COLO 205): 2200 nM | TGI (U-251 [32]): > 100000 nM | CC50 (IGROV-1 [33]): 62000 nM | EC50 (NCI-H23 [34]): 680 nM | EC50 (U-251 [35]): 280 nM | GI50 (CAKI-1 [36]): 370 nM | GI50 (LOX IMVI [37]): 370 nM | TGI (NCI-H522): 2950 nM | GI50 (MDA-N [38]): 350 nM | TGI (DU-145 [39]): 11900 nM | EC50 (RXF 393 [40]): 1610 nM | TGI (OVCAR-3): 52100 nM | CC50 (Malme-3M): 820 nM
